Data as given in ChEMBL document CHEMBL4680194, “Synthesis and biological evaluation of 1,2,4-triazole derivatives as potential neuroprotectant against ischemic brain injury” (Eur J Med Chem, 2020).
Calls of active or inactive are those of the source. The rule behind the calls is not given here.

Key:
[1] = molecular target: T1, Nuclear factor erythroid 2-related factor 2 (Rattus norvegicus) (UniProt O54968); assay: Induction of Nrf2 nuclear translocation in rat PC-12 cells assessed as SNP-induced SOD level at 10 uM incubated for 1 hr followed by SNP stimulation and measured after 24 hrs (reference value: 23.74 +/- 2.02 U/mg); type: cell-based; conditions: time 25.0 hrs
T1 sequence (whole entry): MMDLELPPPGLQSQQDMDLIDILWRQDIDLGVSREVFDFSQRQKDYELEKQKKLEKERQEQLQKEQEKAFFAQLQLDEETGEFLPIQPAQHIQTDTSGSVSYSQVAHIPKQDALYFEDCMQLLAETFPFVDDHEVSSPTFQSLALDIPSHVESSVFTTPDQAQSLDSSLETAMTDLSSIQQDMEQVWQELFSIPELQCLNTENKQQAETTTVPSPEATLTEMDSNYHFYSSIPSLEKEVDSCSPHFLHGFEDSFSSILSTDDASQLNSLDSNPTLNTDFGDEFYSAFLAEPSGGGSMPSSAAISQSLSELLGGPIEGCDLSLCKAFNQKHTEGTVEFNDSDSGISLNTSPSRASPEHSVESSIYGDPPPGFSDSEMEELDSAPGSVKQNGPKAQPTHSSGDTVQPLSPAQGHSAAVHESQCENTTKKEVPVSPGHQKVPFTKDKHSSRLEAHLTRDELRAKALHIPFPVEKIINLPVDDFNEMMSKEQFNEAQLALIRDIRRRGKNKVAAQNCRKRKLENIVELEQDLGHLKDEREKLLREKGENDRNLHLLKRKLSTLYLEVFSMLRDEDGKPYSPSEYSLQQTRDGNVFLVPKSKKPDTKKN

Rattus norvegicus [2] = assay: Neuroprotective activity in Sprague-Dawley rat model of middle cerebral artery occlusion-induced ischemic injury assessed as decrease in TNF-alpha level at 3 to 30 mg/kg, ip administered TID and measured after 24 hrs by ELISA; type: functional, organism-based; conditions: dose 3-30 mg/kg
[3] = molecular target: T1, Nuclear factor erythroid 2-related factor 2 (Rattus norvegicus); assay: Induction of Nrf2 nuclear translocation in rat PC-12 cells assessed as H2O2-induced SOD level at 5 uM incubated for 1 hr followed by H2O2 stimulation and measured after 5 hrs (reference value: 29.69 +/- 1.65 U/mg); type: cell-based; conditions: time 6.0 hrs
[4] = MRT in Sprague-Dawley rat at 2 mg/kg, iv measured upto 24 hrs by LC-MS/MS analysis; type: ADME, organism-based; conditions: in vivo
PC-12 [5] = assay: Cytoprotective activity against SNP-induced cell death in rat PC-12 cells assessed as increase in cell viability at 10 uM incubated for 1 hr followed by SNP stimulation and measured after 24 hrs by MTT assay; type: functional; conditions: time 25 hrs
PC-12 [6] = assay: Inhibition of SNP-induced mitochondrial membrane potential loss in rat PC-12 cells assessed as increase in red fluoresence at 2.5 to 10 uM incubated for 1 hr followed by SNP stimulation and measured after 24 hrs by JC-1 staining based fluorescence microscopy; type: functional, cell-based; conditions: dose 2.5-10 µM, time 25.0 hrs
PC-12 [7] = assay: Effect on Nrf2 in rat PC-12 cells at 1.25 to 5 uM incubated for 24 hrs by Western blot analysis; type: functional, cell-based; conditions: dose 1.25-5 µM
[8] = Tmax in Sprague-Dawley rat at 2 mg/kg, iv measured upto 24 hrs by LC-MS/MS analysis; type: ADME, organism-based; conditions: in vivo
[9] = molecular target: T1, Nuclear factor erythroid 2-related factor 2 (Rattus norvegicus); assay: Induction of Nrf2 nuclear translocation in rat PC-12 cells assessed as SNP-induced GSH level at 2.5 uM incubated for 1 hr followed by SNP stimulation and measured after 24 hrs (reference value: 75.78 +/- 1.74 nM/mg); type: cell-based; conditions: time 25.0 hrs
[10] = molecular target: T1, Nuclear factor erythroid 2-related factor 2 (Rattus norvegicus); assay: Induction of Nrf2 nuclear translocation in rat PC-12 cells assessed as SNP-induced GSH-px level at 10 uM incubated for 1 hr followed by SNP stimulation and measured after 24 hrs (reference value: 37.70 +/- 2.88 mU/mg); type: cell-based; conditions: time 25.0 hrs
[11] = molecular target: T1, Nuclear factor erythroid 2-related factor 2 (Rattus norvegicus); assay: Induction of Nrf2 nuclear translocation in rat PC-12 cells assessed as SNP-induced SOD level at 5 uM incubated for 1 hr followed by SNP stimulation and measured after 24 hrs (reference value: 23.74 +/- 2.02 U/mg); type: cell-based; conditions: time 25.0 hrs
[12] = Clearance in Sprague-Dawley rat at 20 mg/kg, po measured upto 24 hrs by LC-MS/MS analysis; type: ADME, organism-based; conditions: in vivo
Rattus norvegicus [13] = assay: Neuroprotective activity in Sprague-Dawley rat model of middle cerebral artery occlusion-induced ischemic injury assessed as increase in SOD level at 3 to 30 mg/kg, ip administered TID and measured after 24 hrs by ELISA; type: functional, organism-based; conditions: dose 3-30 mg/kg
[14] = Toxicity in […] assessed as body weight at 400 mg/kg, ip measured on day 1 (reference value: 24.4 to 28.4 g); type: organism-based; conditions: in vivo, 24 h, time 1 day
[15] = molecular target: T1, Nuclear factor erythroid 2-related factor 2 (Rattus norvegicus); assay: Induction of Nrf2 nuclear translocation in rat PC-12 cells assessed as SNP-induced GSH-px level at 2.5 uM incubated for 1 hr followed by SNP stimulation and measured after 24 hrs (reference value: 37.70 +/- 2.88 mU/mg); type: cell-based; conditions: time 25.0 hrs
[16] = molecular target: T1, Nuclear factor erythroid 2-related factor 2 (Rattus norvegicus); assay: Induction of Nrf2 nuclear translocation in rat PC-12 cells assessed as SNP-induced SOD level at 2.5 uM incubated for 1 hr followed by SNP stimulation and measured after 24 hrs (reference value: 23.74 +/- 2.02 U/mg); type: cell-based; conditions: time 25.0 hrs
[17] = Clearance in Sprague-Dawley rat at 2 mg/kg, iv measured upto 24 hrs by LC-MS/MS analysis; type: ADME, organism-based; conditions: in vivo
Rattus norvegicus [18] = assay: Neuroprotective activity in Sprague-Dawley rat model of middle cerebral artery occlusion-induced ischemic injury assessed as decrease in IL-1beta level at 3 to 30 mg/kg, ip administered TID and measured after 24 hrs by ELISA; type: functional, organism-based; conditions: dose 3-30 mg/kg
[19] = molecular target: T1, Nuclear factor erythroid 2-related factor 2 (Rattus norvegicus); assay: Induction of Nrf2 nuclear translocation in rat PC-12 cells assessed as H2O2-induced SOD level incubated for 1 hr followed by H2O2 stimulation and measured after 5 hrs; type: cell-based; conditions: dose 2.5-10 µM, time 6.0 hrs
[20] = molecular target: T1, Nuclear factor erythroid 2-related factor 2 (Rattus norvegicus); assay: Induction of Nrf2 nuclear translocation in rat PC-12 cells assessed as SNP-induced SOD level incubated for 1 hr followed by SNP stimulation and measured after 24 hrs; type: cell-based; conditions: dose 2.5-10 µM, time 25.0 hrs
PC-12 [21] = assay: Inhibition of SNP-induced apoptosis in rat PC-12 cells assessed as reduction in condensed nuclei incubated for 1 hr followed by SNP stimulation and measured after 24 hrs by Hoechst 33258 staining based fluorescence microscopy; type: functional, cell-based; conditions: dose 2.5-10 µM, time 25.0 hrs
[22] = molecular target: T1, Nuclear factor erythroid 2-related factor 2 (Rattus norvegicus); assay: Induction of Nrf2 nuclear translocation in rat PC-12 cells assessed as decrease in cytoplasmic Nrf2 level at 1.25 to 5 uM incubated for 24 hrs by Western blot analysis; type: cell-based; conditions: dose 1.25-5 µM
[23] = Toxicity in […] assessed as body weight at 400 mg/kg, ip measured on day 5 (reference value: 24.4 to 28.4 g); type: organism-based; conditions: in vivo, 120 h, time 5 day
[24] = molecular target: T1, Nuclear factor erythroid 2-related factor 2 (Rattus norvegicus); assay: Induction of Nrf2 nuclear translocation in rat PC-12 cells assessed as SNP-induced GSH-px level incubated for 1 hr followed by SNP stimulation and measured after 24 hrs; type: cell-based; conditions: dose 2.5-10 µM, time 25.0 hrs
PC-12 [25] = assay: Inhibition of H2O2-induced mitochondrial membrane potential loss in rat PC-12 cells assessed as increase in red fluoresence at 2.5 to 10 uM incubated for 1 hr followed by H2O2 stimulation and measured after 5 hrs by JC-1 staining based fluorescence microscopy; type: functional, cell-based; conditions: dose 2.5-10 µM, time 6.0 hrs

For `COc1ccc(-c2nc(-c3ccccc3O)n(-c3ccc(S(N)(=O)=O)cc3)n2)c(O)c1`, the Activity [1] was 39.1 U/mg, the Activity (Rattus norvegicus [2]) was “Active” and the Activity [3] was 38.9 U/mg. The MRT [4] was 2.37 h, the Activity (PC-12 [5]) was 30% and the inhibition (PC-12 [6]) was “Active”. The Activity (PC-12 [7]) was “inactive”, the Tmax [8] was 4.98 min and the Activity [9] was 79.1 nM/mg. The Activity [10] was 52.8 mU/mg, the Activity [11] was 34.9 U/mg and the CL/F [12] was 23.3 mL/min/kg. The Activity (Rattus norvegicus [13]) was “Active”, the Activity [14] was 24.3 g and the Activity [15] was 42.5 mU/mg. The Activity [16] was 34.6 U/mg, the clearance [17] was 15 mL/min/kg and the Activity (Rattus norvegicus [18]) was “Active”. For the same molecule, the Activity [19] was “Dose-dependent effect”, the Activity [20] was “Dose-dependent effect” and the inhibition (PC-12 [21]) was “Dose-dependent effect”. For the same molecule, the Activity [22] was “Active”, the Activity [23] was 24.9 g and the Activity [24] was “Dose-dependent effect”. The inhibition (PC-12 [25]) was “Active”.
